Assay [1] deals with T1, Streptococcus pneumoniae NanB fragment (residues 30-697, SEQ ID NO:4) variant Sia-PS3, D270N (Streptococcus pneumoniae serotype 4, UniProt Q54727, D270N).
T1 construct: exemplified by a NanB fragment (residues 30-697); made in house; host or cells: pET28a+ based plasmid
T1 sequence (Q54727 30-692 D270N): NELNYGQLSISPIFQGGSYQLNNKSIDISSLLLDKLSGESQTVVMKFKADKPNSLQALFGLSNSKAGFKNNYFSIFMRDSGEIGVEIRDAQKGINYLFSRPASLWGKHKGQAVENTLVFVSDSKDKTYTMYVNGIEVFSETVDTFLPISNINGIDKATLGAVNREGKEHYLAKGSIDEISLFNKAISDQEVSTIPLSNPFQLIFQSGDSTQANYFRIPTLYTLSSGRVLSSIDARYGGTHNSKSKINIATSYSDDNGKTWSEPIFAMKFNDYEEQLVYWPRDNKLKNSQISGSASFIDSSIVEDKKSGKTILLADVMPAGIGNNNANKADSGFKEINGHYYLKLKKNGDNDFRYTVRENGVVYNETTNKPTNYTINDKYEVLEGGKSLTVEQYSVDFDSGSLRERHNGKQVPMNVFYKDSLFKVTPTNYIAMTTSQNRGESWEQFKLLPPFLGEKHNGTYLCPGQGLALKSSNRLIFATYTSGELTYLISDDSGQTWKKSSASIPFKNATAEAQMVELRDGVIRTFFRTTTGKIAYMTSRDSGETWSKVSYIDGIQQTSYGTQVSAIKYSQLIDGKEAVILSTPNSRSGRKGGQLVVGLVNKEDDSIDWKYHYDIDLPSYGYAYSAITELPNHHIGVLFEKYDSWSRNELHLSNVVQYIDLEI
The experiment in a line: Bio-layer Interferometry (BLI) steady-state binding to immobilized oligosaccharides. The settings on record: in words. The text has this:
Lsp=lactose (no sialic acid), 3′SL=α2,3-sialyllactose, 6′SL=α2,6-sialyllactose, GD3=GD3 oligosaccharide that contains a terminal α2,8-linked Neu5Ac residue and an internal α2,3-linked Neu5Ac residue.
The pan-specific sialic acid-recognizing affinity reagent of the invention is exemplified by a NanB fragment (residues 30-697; SEQ ID NO:4) with a single mutation. Exemplary mutation sites include Y653, D270, and E541. Exemplary pan-specific affinity reagents, each having a single mutation in the NanB GH domain as noted, are shown in Table 2 and include Sia-PS1 (Y653F), Sia-PS2 (D270A), Sia-PS3 (D270N), Sia-PS4 (E541A), and Sia-PS5 (E541Q). […] They reduce (Sia-PS2 and Sia-PS3) or effectively eliminate (Sia-PS1, Sia-PS4, and Sia-PS5) catalytic activity, and they broaden specificity for sialic acid ligand binding. The pan-specific sialic acid-recognizing affinity reagent we chose for further validation study was Sia-PS1 that contains the Y653F at active site residue Tyr653. This one mutation, which involves removal of a single hydroxyl group, not only eliminates enzyme activity, but astonishingly introduces pan-specific binding into the mutated, inactivated enzyme, despite its distance from the carbohydrate binding module (CBM) domain of the NanB.
(§1) The flowchart presented in FIG. 2 outlines schematically the methods employed in Example I and II to screen, optimize and select the Lectenz® candidates. The specificity and affinity of potential Lectenz® candidates is evaluated through structurally-guided site-specific and/or site-saturation mutagenesis assays designed to enable the selection of optimal clones. Bio-layer Interferometry (BLI) is used to determine the binding kinetics and affinities for binding to glycans and glycoproteins. Affinity chromatography is performed by immobilizing the Lectenz® candidates in a column format to evaluate their ability to fractionate sialylated- and asialo-glycans and glycoconjugates. All promising Lectenz® candidates are screened against the glycan array at the CFG, which currently contains over 600 O- and N-linked glycans.
Steady-state binding constants between Lectenz® candidates and sialic acid ligands were measured by BLI.

The target of assay [2] is T2, Streptococcus pneumoniae NanB fragment (residues 30-697, SEQ ID NO:4) variant Sia-3S1, R193A, D270Q, A538V, E541D (Streptococcus pneumoniae serotype 4, UniProt Q54727, A538V/D270Q/E541D/R193A).
T2 construct: exemplified by a NanB fragment (residues 30-697); made in house; host or cells: E. coli
T2 sequence (Q54727 30-692 R193A/D270Q/A538V/E541D): T1 sequence (Q54727 30-692 D270N) with R164A, N241Q, A509V, E512D
In words: Bio-layer Interferometry (BLI) binding to immobilized 3′SL and 6′SL. The note with it: in words, well-defined buffer conditions (10 mM EPPS, 10 or 25 mM NaCl, pH 7.5). As to the method: FIGS. 14A and […] show BLI sensograms for the binding of Sia-3S1 (analyte) under different buffer conditions to oligosaccharides (immobilized ligands): 3′SL=α2,3-sialyllactose, 6′SL=α2,6-sialyllactose.
as §1
The methods are as described in Example I.

For assay [3], the target named is MAL (Maackia amurensis leukoagglutinin). The settings on record: reported values [16, 17]; cited from earlier work.
Assay [4] concerns the target SNA (S. Nigra lectin). The settings on record: reported values [16]; cited from earlier work.

Substitutions are numbered along the chain they refer to.

On to `CC(=O)N[C@H]1[C@H]([C@H](O)[C@H](O)CO)O[C@@](O[C@H](CO)[C@@H](O)[C@@H]2O[C@@](O[C@H]3[C@@H](O)[C@@H](CO)O[C@@H](O[C@H]4[C@H](O)[C@@H](O)C(O)O[C@@H]4CO)[C@@H]3O)(C(=O)O)C[C@H](O)[C@H]2NC(C)=O)(C(=O)O)C[C@@H]1O` (stereo partly drawn) [GD3, Neu5Acα2,8Neu5Acα2,3Galβ1, 4Glcβ], for which the binding affinity entry in assay [1] is on record as “micromolar or sub-micromolar”.
`CC(=O)N[C@H]1[C@H]([C@H](O)[C@H](O)CO)O[C@@](O[C@H]2[C@@H](O)[C@@H](CO)O[C@@H](O[C@H]3[C@H](O)[C@@H](O)C(O)O[C@@H]3CO)[C@@H]2O)(C(=O)O)C[C@@H]1O` (stereo partly drawn) [3′SL, α2,3-sialyllactose]: the binding affinity entry in assay [1] was “micromolar or sub-micromolar”. Further, the affinity result in assay [2] is “high and preferential affinity for 3′SL over 6′SL”. Besides, the dissociation constant (Kd) (as a rule, the equilibrium constant for the complex coming apart) in assay [3] was 1000 to 3000 nM.
As for `CC(=O)N[C@H]1[C@H]([C@H](O)[C@H](O)CO)O[C@@](OC[C@H]2O[C@@H](O[C@H]3[C@H](O)[C@@H](O)C(O)O[C@@H]3CO)[C@H](O)[C@@H](O)[C@H]2O)(C(=O)O)C[C@@H]1O` (stereo partly drawn) [6′SL, 6′-sialyllactose (Neu5Acα2,6Galβ1, 4Glcβ, or 6′SL)], in assay [1], the binding affinity result is “micromolar or sub-micromolar”. In addition, the Kd in assay [4] was 600 to 900 nM.

Source of the values: patent US11434479B2, “Sialic acid binding polypeptide” (priority 2017, dated 2022).
